{"source": "ChEMBL document CHEMBL1201862", "about": "“PubChem BioAssay data set” (2004)", "key": {"HEK293 [1]": {"system": "HEK293", "assay": "NOD1 signaling inhibitors, primary screen, cell-based, luminescence, uHTS (AID 1578)", "assay_type": "functional", "conditions": "Homo sapiens"}, "HEK293 [2]": {"system": "HEK293", "assay": "cells", "assay_type": "functional, cell-based", "conditions": "Homo sapiens"}, "HEK293 [3]": {"system": "HEK293", "assay": "cells", "assay_type": "functional, cell-based", "conditions": "Homo sapiens", "remark": "listed apart in the source"}, "HEK293 [4]": {"system": "HEK293", "assay": "NOD2 signaling inhibitors in MDP-stimulated cells, cell-based, uHTS, luminescence (AID 2001)", "assay_type": "functional", "conditions": "Homo sapiens"}, "Tumor necrosis factor": {"biological_target": "Tumor necrosis factor (Homo sapiens, UniProt P01375)", "sequence (P01375 whole entry)": "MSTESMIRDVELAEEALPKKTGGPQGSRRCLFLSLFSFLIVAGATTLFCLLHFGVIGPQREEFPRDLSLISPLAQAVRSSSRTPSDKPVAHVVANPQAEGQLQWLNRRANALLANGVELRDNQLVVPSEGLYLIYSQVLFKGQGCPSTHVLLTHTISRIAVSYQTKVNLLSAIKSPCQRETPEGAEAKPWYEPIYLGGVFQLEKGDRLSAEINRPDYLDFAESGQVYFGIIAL", "assay": "TNFa-triggered NF-kB activation inhibitors, SAR follow-up, cell-based, revised (AID 2337)", "assay_type": "functional"}, "[5]": {"biological_target": "T1, Nucleotide-binding oligomerization domain-containing protein 1 (Homo sapiens, UniProt Q9Y239)", "T1 sequence (Q9Y239 whole entry)": "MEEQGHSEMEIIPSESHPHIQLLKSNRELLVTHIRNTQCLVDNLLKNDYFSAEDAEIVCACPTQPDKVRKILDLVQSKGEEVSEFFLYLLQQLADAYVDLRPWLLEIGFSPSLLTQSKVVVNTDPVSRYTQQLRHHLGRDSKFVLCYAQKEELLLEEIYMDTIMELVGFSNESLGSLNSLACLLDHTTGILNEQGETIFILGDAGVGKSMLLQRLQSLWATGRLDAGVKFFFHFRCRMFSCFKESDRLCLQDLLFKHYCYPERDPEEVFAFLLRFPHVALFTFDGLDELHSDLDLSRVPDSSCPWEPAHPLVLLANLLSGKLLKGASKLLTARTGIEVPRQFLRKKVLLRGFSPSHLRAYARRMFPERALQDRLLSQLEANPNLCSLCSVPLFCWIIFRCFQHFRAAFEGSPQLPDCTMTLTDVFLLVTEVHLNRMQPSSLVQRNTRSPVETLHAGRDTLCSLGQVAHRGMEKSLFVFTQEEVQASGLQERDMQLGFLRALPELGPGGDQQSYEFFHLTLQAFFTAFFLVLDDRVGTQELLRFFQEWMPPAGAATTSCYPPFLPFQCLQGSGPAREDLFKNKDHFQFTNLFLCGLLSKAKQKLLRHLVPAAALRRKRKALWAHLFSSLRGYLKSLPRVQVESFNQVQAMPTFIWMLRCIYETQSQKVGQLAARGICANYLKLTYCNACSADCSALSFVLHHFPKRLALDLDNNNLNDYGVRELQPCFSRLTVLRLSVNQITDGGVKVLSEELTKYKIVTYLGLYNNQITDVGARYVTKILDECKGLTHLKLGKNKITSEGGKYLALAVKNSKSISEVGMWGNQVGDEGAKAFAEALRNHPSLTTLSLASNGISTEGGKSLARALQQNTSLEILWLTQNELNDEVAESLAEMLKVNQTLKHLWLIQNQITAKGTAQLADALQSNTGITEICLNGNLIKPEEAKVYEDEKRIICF", "assay": "NOD1 signaling inhibitors, SAR follow-up, revised (AID 2333)", "assay_type": "functional"}, "[6]": {"assay": "Shn3 3'UTR reporter inhibitors, dose response, cell-based, Clone20 osteoblasts, firefly luciferase, cherry-picked (AID 624132)", "assay_type": "functional"}, "[7]": {"assay": "HepG2 cell cytotoxicity, dose response, cytotoxicity control for Shn3 inhibitor project, CellTiter-Glo, cherry-picked (AID 624134)", "assay_type": "functional, cell-based"}, "[8]": {"assay": "control 3'UTR Renilla luciferase suppression, dose response, counter-screen for Shn3 inhibitor project, cell-based, Clone20-Shn3RL, cherry-picked (AID 624133)", "assay_type": "functional"}, "HEK293 [9]": {"system": "HEK293", "assay": "cells", "conditions": "Homo sapiens"}, "Beta-galactosidase": {"biological_target": "Beta-galactosidase (Escherichia coli, UniProt Q8VNN2)", "sequence (Q8VNN2 whole entry)": "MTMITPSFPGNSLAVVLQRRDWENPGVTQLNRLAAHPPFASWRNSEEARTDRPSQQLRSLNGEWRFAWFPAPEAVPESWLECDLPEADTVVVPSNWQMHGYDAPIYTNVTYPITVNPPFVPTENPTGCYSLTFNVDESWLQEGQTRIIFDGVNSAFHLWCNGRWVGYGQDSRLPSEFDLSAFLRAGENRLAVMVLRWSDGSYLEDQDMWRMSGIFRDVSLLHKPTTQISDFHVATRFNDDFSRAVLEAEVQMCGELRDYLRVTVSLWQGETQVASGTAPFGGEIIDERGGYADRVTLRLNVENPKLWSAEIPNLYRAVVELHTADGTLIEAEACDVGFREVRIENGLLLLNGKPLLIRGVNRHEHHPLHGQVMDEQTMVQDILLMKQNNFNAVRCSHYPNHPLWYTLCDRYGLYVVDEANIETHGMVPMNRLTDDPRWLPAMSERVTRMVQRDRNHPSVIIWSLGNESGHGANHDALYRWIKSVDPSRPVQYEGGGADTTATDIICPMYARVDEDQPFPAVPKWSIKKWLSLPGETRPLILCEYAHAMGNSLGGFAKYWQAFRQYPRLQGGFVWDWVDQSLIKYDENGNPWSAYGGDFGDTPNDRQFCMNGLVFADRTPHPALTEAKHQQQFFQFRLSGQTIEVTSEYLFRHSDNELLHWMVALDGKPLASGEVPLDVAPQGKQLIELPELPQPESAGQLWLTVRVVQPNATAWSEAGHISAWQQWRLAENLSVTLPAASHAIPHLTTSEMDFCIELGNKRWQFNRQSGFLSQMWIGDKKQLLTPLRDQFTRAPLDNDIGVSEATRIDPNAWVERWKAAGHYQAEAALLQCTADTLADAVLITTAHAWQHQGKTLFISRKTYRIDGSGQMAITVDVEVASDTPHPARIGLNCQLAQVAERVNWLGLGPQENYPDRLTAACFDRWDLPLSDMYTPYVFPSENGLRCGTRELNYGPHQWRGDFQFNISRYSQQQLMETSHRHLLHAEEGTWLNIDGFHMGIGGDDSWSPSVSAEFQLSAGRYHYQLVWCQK", "assay": "PubChem AID 485352", "assay_type": "functional"}, "[10]": {"biological_target": "T2, Type-1 angiotensin II receptor (Homo sapiens, UniProt P30556)", "T2 sequence (P30556 whole entry)": "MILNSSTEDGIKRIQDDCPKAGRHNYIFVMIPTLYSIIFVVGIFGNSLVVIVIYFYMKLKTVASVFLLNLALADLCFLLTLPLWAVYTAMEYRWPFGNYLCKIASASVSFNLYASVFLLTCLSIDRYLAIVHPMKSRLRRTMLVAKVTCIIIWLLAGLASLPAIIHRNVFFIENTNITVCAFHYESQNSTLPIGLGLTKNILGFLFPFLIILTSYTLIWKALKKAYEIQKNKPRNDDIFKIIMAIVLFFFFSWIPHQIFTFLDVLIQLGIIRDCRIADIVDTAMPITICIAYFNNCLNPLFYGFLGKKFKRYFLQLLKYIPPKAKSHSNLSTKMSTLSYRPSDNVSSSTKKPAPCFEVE", "assay": "AT1 receptor antagonists, dose response, selectivity assay for APJ receptor antagonist project, cell-based, uHTS hits (AID 463214)", "assay_type": "functional"}, "Cytochrome P450 3A4 [11]": {"biological_target": "T3, Cytochrome P450 3A4 (Homo sapiens, UniProt P08684)", "T3 sequence (P08684 whole entry)": "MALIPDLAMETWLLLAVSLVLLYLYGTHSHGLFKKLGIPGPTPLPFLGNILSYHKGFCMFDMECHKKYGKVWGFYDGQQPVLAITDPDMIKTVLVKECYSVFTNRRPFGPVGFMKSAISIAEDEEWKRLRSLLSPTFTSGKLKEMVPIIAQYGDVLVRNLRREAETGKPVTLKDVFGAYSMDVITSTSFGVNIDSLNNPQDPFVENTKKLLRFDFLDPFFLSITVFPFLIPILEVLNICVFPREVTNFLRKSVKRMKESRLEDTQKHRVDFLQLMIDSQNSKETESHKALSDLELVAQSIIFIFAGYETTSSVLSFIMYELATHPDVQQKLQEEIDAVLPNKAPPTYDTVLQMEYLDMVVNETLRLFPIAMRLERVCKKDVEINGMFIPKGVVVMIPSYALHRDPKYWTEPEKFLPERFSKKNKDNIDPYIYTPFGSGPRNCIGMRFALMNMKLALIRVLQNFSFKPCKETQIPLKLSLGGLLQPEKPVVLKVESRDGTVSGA"}, "[12]": {"biological_target": "T4, Endoribonuclease toxin MazF (Escherichia coli K-12, UniProt P0AE70)", "T4 sequence (P0AE70 whole entry)": "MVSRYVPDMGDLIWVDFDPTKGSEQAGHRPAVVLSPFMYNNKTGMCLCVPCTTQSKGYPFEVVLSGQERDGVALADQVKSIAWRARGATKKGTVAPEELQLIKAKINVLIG", "assay": "MazF toxin RNase activators, dose response, biochemical, fluorescence, single-stranded RNA substrate, uHTS hits (AID 588481)", "assay_type": "functional"}, "Insulin-degrading enzyme [13]": {"biological_target": "T5, Insulin-degrading enzyme (Homo sapiens, UniProt P14735)", "T5 sequence (P14735 whole entry)": "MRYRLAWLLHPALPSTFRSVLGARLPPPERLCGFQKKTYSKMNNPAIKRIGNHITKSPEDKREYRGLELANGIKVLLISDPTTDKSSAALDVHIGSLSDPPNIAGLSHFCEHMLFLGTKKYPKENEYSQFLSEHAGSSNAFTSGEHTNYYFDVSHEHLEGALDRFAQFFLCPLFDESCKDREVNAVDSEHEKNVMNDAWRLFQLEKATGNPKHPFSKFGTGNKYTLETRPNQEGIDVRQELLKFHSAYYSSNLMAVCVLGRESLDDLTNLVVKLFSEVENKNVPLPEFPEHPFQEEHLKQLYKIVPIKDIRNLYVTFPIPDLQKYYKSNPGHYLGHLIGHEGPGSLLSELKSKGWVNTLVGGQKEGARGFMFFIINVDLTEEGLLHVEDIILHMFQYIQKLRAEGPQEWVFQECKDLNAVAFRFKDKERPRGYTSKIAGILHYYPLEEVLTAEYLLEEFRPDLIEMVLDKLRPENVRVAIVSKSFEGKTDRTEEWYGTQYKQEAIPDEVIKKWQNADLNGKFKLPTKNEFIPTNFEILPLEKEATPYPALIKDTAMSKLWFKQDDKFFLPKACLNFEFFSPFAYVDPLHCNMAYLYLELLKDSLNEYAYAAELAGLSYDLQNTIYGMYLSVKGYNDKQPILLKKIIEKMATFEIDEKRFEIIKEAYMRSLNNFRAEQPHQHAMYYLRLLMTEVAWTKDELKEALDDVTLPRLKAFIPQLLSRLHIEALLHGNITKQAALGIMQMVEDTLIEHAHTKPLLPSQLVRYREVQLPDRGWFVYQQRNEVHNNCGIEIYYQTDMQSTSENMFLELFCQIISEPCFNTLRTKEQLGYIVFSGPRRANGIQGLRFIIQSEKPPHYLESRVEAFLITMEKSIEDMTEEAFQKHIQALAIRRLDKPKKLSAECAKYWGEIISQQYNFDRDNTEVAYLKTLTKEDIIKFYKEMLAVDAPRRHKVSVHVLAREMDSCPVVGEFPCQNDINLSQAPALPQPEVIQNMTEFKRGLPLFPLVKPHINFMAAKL", "assay": "activators of recombinant IDE enzyme, dose response, counter-screen for IDE activator project, biochemical, fluorescence polarization (AID 588681)"}, "Insulin-degrading enzyme [14]": {"biological_target": "T5, Insulin-degrading enzyme", "assay": "activators of endogenous IDE in HEK cells, dose response, cell-based, fluorescence polarization (AID 588439)", "assay_type": "functional"}, "[15]": {"biological_target": "T4, Endoribonuclease toxin MazF", "assay": "fluorescent RNA oligo signal without MazF, dose response, counter-screen for MazEF activator project, biochemical, fluorescence, single-stranded RNase substrate (AID 588502)", "assay_type": "functional"}, "HEK293 [16]": {"system": "HEK293", "assay": "HEK cell cytotoxicity by LDH release, dose response, cytotoxicity control for IDE activator project, fluorescence, HEK cells (AID 588440);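 note: cytotoxicity by LDH release measuring loss of membrane integrity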", "assay_type": "functional, cell-based", "conditions": "Homo sapiens"}, "HEK293 [17]": {"system": "HEK293", "assay": "optical interference in Abeta FP readout, dose response, artefact control for IDE activator project, biochemical, fluorescence polarization (AID 588442)", "assay_type": "functional, cell-based", "conditions": "Homo sapiens"}, "Cytochrome P450 3A4 [18]": {"biological_target": "T3, Cytochrome P450 3A4", "conditions": "Potency"}, "Melanocortin receptor 4": {"biological_target": "Melanocortin receptor 4 (Homo sapiens, UniProt P32245)", "sequence (P32245 whole entry)": "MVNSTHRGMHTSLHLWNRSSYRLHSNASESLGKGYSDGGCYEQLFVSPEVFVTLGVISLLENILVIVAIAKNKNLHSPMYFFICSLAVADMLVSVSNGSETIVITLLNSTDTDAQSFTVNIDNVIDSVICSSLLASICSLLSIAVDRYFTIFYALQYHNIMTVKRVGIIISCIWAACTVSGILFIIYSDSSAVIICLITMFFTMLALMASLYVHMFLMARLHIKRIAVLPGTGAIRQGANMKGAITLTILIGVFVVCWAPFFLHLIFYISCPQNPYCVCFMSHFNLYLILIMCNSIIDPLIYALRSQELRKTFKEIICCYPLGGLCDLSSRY", "assay": "MC4R antagonist potency on cAMP, dose response, cell-based, TR-FRET, biased antagonists (AID 602298);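 note: antagonist potency against agonist-stimulated cAMP production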", "assay_type": "functional"}, "[19]": {"assay": "nonselective inhibitors of cellular cAMP signaling, dose response, counter-screen for MC4R biased antagonist project, cell-based, TR-FRET cAMP detection (AID 602305);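 note: U2OS cells stimulated with forskolin near its EC80 as the cAMP inducer; potency is for inhibition of forskolin-stimulated cAMP signaling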", "assay_type": "functional"}}, "note": "Calls of active or inactive are those of the source.", "data": [{"compound": "COCC1CCN(C(=O)c2cc(COc3ccc4ncccc4c3)on2)CC1", "values": [{"measurement": "EC50", "setting": "HEK293 [1]", "result": "2.31 µM (active)"}, {"measurement": "IC50", "setting": "HEK293 [2]", "result": "8.36 µM (active)"}, {"measurement": "IC50", "setting": "HEK293 [3]", "result": "> 20 µM (inactive)"}, {"measurement": "IC50", "setting": "HEK293 [4]", "result": "14.8 µM (inactive)"}, {"measurement": "IC50", "setting": "Tumor necrosis factor", "result": "4.81 µM (active)"}, {"measurement": "IC50", "setting": "[5]", "result": "3.13 µM (active)"}, {"measurement": "AC50", "setting": "[6]", "result": "2.7 µM (active)"}, {"measurement": "AC50", "setting": "[7]", "result": "42.1 µM (active)"}, {"measurement": "AC50", "setting": "[8]", "result": "10.5 µM (active)"}, {"measurement": "IC50", "setting": "HEK293 [9]", "result": "> 20 µM (inactive)"}]}, {"compound": "Cc1ccc(OCCN2C(=O)c3ccccc3C2=O)c([N+](=O)[O-])c1", "values": [{"measurement": "EC50", "setting": "Beta-galactosidase", "result": "> 40 µM (inactive)"}, {"measurement": "IC50", "setting": "[10]", "result": "9.04 µM (active)"}]}, {"compound": "COc1ccc(C(=O)N2CCC3(CCN(Cc4nccs4)CC3)CC2)cc1", "values": [{"measurement": "AC50", "setting": "Cytochrome P450 3A4 [11]", "result": "inconclusive"}]}, {"compound": "Oc1ccc2c(c1)OCC1(O)Cc3cc(O)c(O)cc3C21", "note": "(stereo not drawn)", "values": [{"measurement": "EC50", "setting": "[12]", "result": "> 99 µM (inactive)"}, {"measurement": "EC50", "setting": "Insulin-degrading enzyme [13]", "result": "> 54.7 µM (inactive)"}, {"measurement": "EC50", "setting": "Insulin-degrading enzyme [14]", "result": "> 54.7 µM (inactive)"}, {"measurement": "EC50", "setting": "[15]", "result": "3.96 µM (active)"}, {"measurement": "IC50", "setting": "HEK293 [16]", "result": "85.1 µM (inactive)"}, {"measurement": "EC50", "setting": "HEK293 [17]", "result": "53.6 µM (inactive)"}, {"measurement": "AC50", "setting": "Cytochrome P450 3A4 [18]", "result": "31.6 µM (inconclusive)"}]}, {"compound": "O=C(c1cnccn1)N1CCC2(CC1)CCN(c1ncccn1)CC2", "values": [{"measurement": "AC50", "setting": "Cytochrome P450 3A4 [11]", "result": "inconclusive"}]}, {"compound": "Cc1sc2nc(CN3CCOCC3)nc(Cl)c2c1C", "values": [{"measurement": "IC50", "setting": "Melanocortin receptor 4", "result": "> 64.5 µM (inactive)"}, {"measurement": "IC50", "setting": "[19]", "result": "> 64.5 µM (inactive)"}]}]}
